Laboratory results from publication PMC8652888, “Angiogenesis, Anti-Tumor, and Anti-Metastatic Activity of Novel α-Substituted Hetero-Aromatic Chalcone Hybrids as Inhibitors of Microtubule Polymerization” (Frontiers in Chemistry, 2021).
Read-outs that look alike come from different tables or passages of the source.

How the values were obtained:
U937 = experiment: Antiproliferative activity, CCK-8 assay; assay type: cell-based; conditions: Homo sapiens, U-937
Method: (§1) The synthesized compounds were first evaluated for their cytotoxic effect on MCF-7 (human breast adenocarcinoma), U937 (histiocytic lymphoma cancer), HepG2 (human liver cancer) cells, and MGC-803 (human gastric cancer) using the SRB and CCK-8 assay. As reference compounds CA-4 and colchicine were included.
(§2) The primary tumor cells were purchased from a professional biomedical company. First, the primary tumor cells were incubated in a cell culture incubator at 37°C and 5% CO2. After the cell fusion reached 85%–95%, subculture was performed, and the tumor cells obtained at this time were used for subsequent related experiments. The CCK-8 method was used to inhibit the proliferation of U937 tumor cells, and the SRB method was used to inhibit the proliferation of MCF7 and HepG2 tumor cells.
The cells in the logarithmic growth phase were seeded in a 96-well plate at 8,000/well, and the drug-containing medium and cell suspension were added to the well. Three wells were added with the blank medium as the blank group. The 96-well plate was incubated for 72 h in a 37°C, 5% CO2 incubator. The 10 μl of CCK-8 dye solution was added to each well, and the incubation continued for 3–4 h.

MCF-7 = experiment: Antiproliferative activity, SRB assay; assay type: cell-based, human; conditions: Homo sapiens;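 also: proliferation of MCF7 cells quantified by sulforhodamine B staining, with optical density read at 560 nm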
HepG2 = experiment: Antiproliferative activity, SRB assay; assay type: cell-based, human; conditions: Homo sapiens, HepG2
Method: as §1, §2
Cells were distributed into 96-well plates with a density of 3 × 10^3–4 × 10^3 cells per well and incubated for 24 h in a 5% CO2 incubator at 37°C, followed by treatment with study compounds at different concentrations at 37°C for 72 h. One hundred microliters of 10% (w/v) trichloroacetic acid was added to each well, fixed at 4°C for 30 min, and dried at 65°C. Then 100 μl of 0.4% SRB was added to each well and stained on a shaker for 20 min at room temperature. The excess dye solution was washed with newly prepared 1% glacial acetic acid and dried at 65°C. One hundred fifty microliters of 10 mM unbuffered Trisbase was added to each well of the plate and shaken for 5 min to dissolve the dye. The microplate reader measured the optical density (OD) at a wavelength of 560 nm.

[1] = 72 h, triplicate, mean ± SD, read-out: IC50 ± SD, U937
[2] = MCF7, 72 h, 72 h, triplicate, mean ± SD, read-out: IC50 ± SD, MCF-7
[3] = MCF7, supplement raw data of table 2, read-out: IC50(MCF-7)
[4] = 72 h, triplicate, mean ± SD, read-out: IC50 ± SD, HepG2
[5] = supplement raw data of table 2, read-out: IC50(Hepg2)
[6] = supplement raw data of table 2, read-out: IC50(U937)

melting point [°C] | IC50 (U937; [1]) [µM] | IC50 (MCF-7; [2]) [µM] | IC50 (MCF-7; [3]) [µM] | IC50 (HepG2; [4]) [µM] | IC50 (HepG2; [5]) [µM] | IC50 (U937; [6]) [µM] | Structure (SMILES)
152.7 to 153.2 | 3.08 ± 0.433 | 0.584 ± 0.016 | 0.584 | 10.8 ± 0.629 |  |  | COc1cc(C(=O)/C(C)=C/c2c(C)[nH]c3ccccc23)cc(OC)c1OC [Compound 7b, (E)-2-methyl-3-(2-methyl-1H-indol-3-yl)-1-(3,4,5-trimethoxyphenyl)prop-2-en-1-one]
210.4 to 213.7 | > 20 | > 20 |  | > 20 |  |  | COC(=O)c1ccc2[nH]cc(/C=C(\C)C(=O)c3cc(OC)c(OC)c(OC)c3)c2c1 [Compound 7e, methyl(E)-3-(2-methyl-3-oxo-3-(3,4,5-trimethoxyphenyl)prop-1-en-1-yl)-1H-indole-5-carboxylate]
229.3 to 231.7 | 1.61 ± 0.19 | 13.7 ± 0.965 |  | 0.193 ± 0.001 |  |  | COC(=O)c1ccc2c(/C=C(\C)C(=O)c3cc(OC)c(OC)c(OC)c3)c[nH]c2c1 [Compound 7f, methyl(E)-3-(2-methyl-3-oxo-3-(3,4,5-trimethoxyphenyl)prop-1-en-1-yl)-1H-indole-6-carboxylate]
50.1 to 53.2 | 0.224 ± 0.007 | 0.254 ± 0.01 | 0.255 | 0.116 ± 0.007 |  |  | COc1cc(C(=O)/C(C)=C/c2cc3ccccc3o2)cc(OC)c1OC [Compound 7h, (E)-3-(benzofuran-2-yl)-2-methyl-1-(3,4,5-trimethoxyphenyl)prop-2-en-1-one]
113.2 to 115.1 | 1.18 ± 0.037 | 1.41 ± 0.021 |  | 0.879 ± 0.007 | 0.879 |  | COc1cc(C(=O)/C(C)=C/c2oc3ccccc3c2C)cc(OC)c1OC [Compound 7i, (E)-2-methyl-3-(3-methylbenzofuran-2-yl)-1-(3,4,5-trimethoxyphenyl)prop-2-en-1-one]
 | 0.011 ± 0.002 | 0.02 ± 0.002 | 0.0195 | 0.002 ± 0.0001 | 0.00221 | 0.0108 | COc1cc(C(=O)/C(C)=C/c2ccc3c(c2)CCO3)cc(OC)c1OC [Compound 7n, (E)-3-(2,3-dihydrobenzofuran-5-yl)-2-methyl-1-(3,4,5-trimethoxyphenyl)prop-2-en-1-one]
81.4 to 83.2 | 0.166 ± 0.003 | 0.187 ± 0.003 | 0.187 | 0.116 ± 0.001 | 0.116 | 0.166 | COc1cc(C(=O)/C(C)=C/c2cc3ccccc3s2)cc(OC)c1OC [Compound 7o, (E)-3-(benzo[b]thiophen-2-yl)-2-methyl-1-(3,4,5-trimethoxyphenyl)prop-2-en-1-one]
119.7 to 120.9 | 0.353 ± 0.006 | 0.225 ± 0.005 |  | 0.259 ± 0.005 | 0.259 | 0.353 | COc1cc(C(=O)/C(C)=C/c2cccc3c2OCO3)cc(OC)c1OC [Compound 7s, (E)-3-(benzo[d][1,3]dioxol-4-yl)-2-methyl-1-(3,4,5-trimethoxyphenyl)prop-2-en-1-one]
224.2 to 229.3 | 0.14 ± 0.041 | 0.934 ± 0.023 | 0.94 | 0.938 ± 0.008 | 0.938 | 0.14 | COc1cc(C(=O)/C(C#N)=C/c2c[nH]c3ccccc23)cc(OC)c1OC [Compound 8a, (E)-3-(1H-indol-3-yl)-2-(3,4,5-trimethoxybenzoyl)acrylonitrile]
216.5 to 218.2 | > 20 | > 20 |  | > 20 |  |  | COc1cc(C(=O)/C(C#N)=C/c2c(C)[nH]c3ccccc23)cc(OC)c1OC [Compound 8b, (E)-3-(2-methyl-1H-indol-3-yl)-2-(3,4,5-trimethoxybenzoyl)acrylonitrile]
253.8 to 255.9 | 4.49 ± 0.433 | 2.1 ± 0.27 |  | 14.1 ± 0.386 |  |  | COc1cc(C(=O)/C(C#N)=C/c2c(-c3ccccc3)[nH]c3ccccc23)cc(OC)c1OC [Compound 8c, (E)-2-((l2-azaneylidene)-l3-methyl)-3-(2-phenyl-1H-indol-3-yl)-1-(3,4,5-trimethoxyphenyl)prop-2-en-1-one]
176.7 to 178.2 | 8.58 ± 0.178 | > 20 |  | > 20 |  |  | COC(=O)c1cccc2[nH]cc(/C=C(\C#N)C(=O)c3cc(OC)c(OC)c(OC)c3)c12 [Compound 8d, methyl(E)-3-(2-cyano-3-oxo-3-(3,4,5-trimethoxyphenyl)prop-1-en-1-yl)-1H-indole-4-carboxylate]
> 260 | > 20 | > 20 |  | > 20 |  |  | COC(=O)c1ccc2[nH]cc(/C=C(\C#N)C(=O)c3cc(OC)c(OC)c(OC)c3)c2c1 [Compound 8e, methyl(E)-3-(2-cyano-3-oxo-3-(3,4,5-trimethoxyphenyl)prop-1-en-1-yl)-1H-indole-5-carboxylate]
239.7 to 241 | > 20 | > 20 |  | > 20 |  |  | COC(=O)c1ccc2c(/C=C(\C#N)C(=O)c3cc(OC)c(OC)c(OC)c3)c[nH]c2c1 [Compound 8f, methyl(E)-3-(2-cyano-3-oxo-3-(3,4,5-trimethoxyphenyl)prop-1-en-1-yl)-1H-indole-6-carboxylate]
266.5 to 268.2 | 2.51 ± 0.029 | 2.161 ± 0.009 |  | 1.43 ± 0.049 |  |  | COc1cc(C(=O)/C(C#N)=C/c2c[nH]c3cc(Br)ccc23)cc(OC)c1OC [Compound 8g, (E)-3-(6-bromo-1H-indol-3-yl)-2-(3,4,5-trimethoxybenzoyl)acrylonitrile]
168.3 to 169.5 | > 20 | > 20 |  | > 20 |  |  | COc1cc(C(=O)/C(C#N)=C/c2cc3ccccc3o2)cc(OC)c1OC [Compound 8h, (E)-3-(benzofuran-2-yl)-2-(3,4,5-trimethoxybenzoyl)acrylonitrile]
136.7 to 138.5 | > 20 | > 20 |  | > 20 |  |  | COc1cc(C(=O)/C(C#N)=C/c2oc3ccccc3c2C)cc(OC)c1OC [Compound 8i, (E)-3-(3-methylbenzofuran-2-yl)-2-(3,4,5-trimethoxybenzoyl)acrylonitrile]
176.5 to 178.4 | > 20 | > 20 |  | > 20 |  |  | COc1cc(C(=O)/C(C#N)=C/c2coc3ccccc23)cc(OC)c1OC [Compound 8j, (E)-3-(benzofuran-3-yl)-2-(3,4,5-trimethoxybenzoyl)acrylonitrile]
160.1 to 163.8 | 14.31 ± 0.127 | 16.43 ± 0.042 |  | 18.74 ± 0.035 | 18.7 | 14.3 | COc1cc(C(=O)/C(C#N)=C/c2cc3c(cc2[N+](=O)[O-])OCO3)cc(OC)c1OC [Compound 8k, (E)-3-[6-nitrobenzo(d)(1,3)dioxol-5-yl]-2-(3,4,5-trimethoxybenzoyl)acrylonitrile]
181.3 to 182.6 | > 20 | > 20 |  | > 20 |  |  | COc1cc(C(=O)/C(C#N)=C/c2ccc3oc4ccccc4c3c2)cc(OC)c1OC [Compound 8l, (E)-3-[dibenzo (b,d)furan-2-yl]-2-(3,4,5-trimethoxybenzoyl)acrylonitrile]
 | 9.25 ± 0.141 | > 20 |  | > 20 |  |  | COc1cc(C(=O)/C(C#N)=C/c2ccc3c(c2)CCO3)cc(OC)c1OC [Compound 8n, (E)-3-(2,3-dihydrobenzofuran-5-yl)-2-(3,4,5-trimethoxybenzoyl)acrylonitrile]
